Reference: PubChem BioAssay AID179 (DTP/NCI, 2004)
Active and inactive are the calls of the source.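 The calls were made as follows: active = compounds giving half or more protection of infected cells from virus-caused growth loss, again on retest; inactive = the rest.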

Tested on: CEM cells HIV-1 protection, formazan growth assay
Assay: NCI AIDS Antiviral Assay
Settings: for IC50: measured here: growth of uninfected CEM cells
In short: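 Protection of CEM cells against HIV-1 was scored from cell growth (soluble formazan) across five concentrations, with parallel uninfected cells. Lack of protection may reflect toxicity.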

SMILES | outcome | EC50 [µM] | IC50 [µM]
C[N+](C)(C)c1ccc(/C=C2\C=Cc3ccccc32)cc1 | inactive |  | 
CC1C2CC3(c4ccccc4)CC(/C2=N\O)/C(=N/O)C1[C@@]3(C)O (stereo partly specified) |  | > 200 | > 200
CN(C)CCNC(=O)c1cc(NC(=O)c2cc(NC(=O)CC/C=C3/[C@@H]4CC[C@H]3N=N4)cn2C)cn1C |  | > 200 | > 200
CCOC(=O)c1nc2cc(C(F)(F)F)ccc2nc1Oc1ccc(OC)cc1 |  | > 200 | 174
CN(C)C(=Nc1nc(=[N+](C)C)ss1)N(C)C | inactive |  | 
CC[C@H]1CC(=O)c2c(cc3c(c2O)C(=O)c2ccccc2C3=O)[C@@]1(C#N)C(=O)OC(C)(C)C | inactive |  | 
COc1ccc2cc1Oc1ccc(cc1)CC1c3cc(c(OC)cc3CCN1C)Oc1c(OC)c(OC)c(OC)c3c1[C@H](C2)N(C)CC3 (stereo partly specified) | inactive |  | 
CCCCCCCCCCCCCCC(C(=O)O)S(=O)(=O)O (stereo unspecified) |  | > 200 | 155
CCCn1c(SCCSc2c3ccccc3c(-c3nc(F)nc(F)n3)n2CCC)c2ccccc2c1-c1nc(F)nc(F)n1 |  | > 4.07 | 3.98
C=C1c2[nH]c3ccccc3c2CC(C(=O)O)N1C(O)c1ccc(S(=O)(=O)O)cc1 (stereo unspecified) | inactive |  | 
C/C(N=NC(=S)N1CCCCCC1)=C1\C=CC=CN1O |  | > 123 | 2.14
COc1ccc(C(=O)O)c(Cc2cccc3ccccc23)c1 | inactive |  | 
COS(=O)(=O)OC1(SC)C=C(c2ccccc2)SS1 (stereo unspecified) |  | > 200 | 107
Cn1c(=O)cc(NNc2ccc(Cl)c(Cl)c2)[nH]c1=O |  | > 200 | 3.09
O=S1(=O)CCCS(=O)(=O)C1CC1S(=O)(=O)CCCS1(=O)=O |  | > 245 | > 245
O=C1NC2c3c(I)sc(I)c3/C(=N\O)C2O1 (stereo unspecified) |  | > 200 | 16.2
Cc1ccc2oc(=O)c(C#N)c(C)c2c1 |  | > 25.1 | > 25.1
C1=NCCNc2nc3ccccc3cc2C=NCCNc2nc3ccccc3cc21 |  | > 200 | > 200
C=C1C(=O)OC2C1CC[C@H](C)C1(O)C(O)CC(=O)[C@@]21C (stereo partly specified) | inactive |  | 
COC(=O)C(CC1CC(OC(C)=O)c2[nH]c3ccccc3c2CCN(C(C)=O)C1)C(=O)OC (stereo unspecified) |  | > 135 | > 135
CN(C)CCNC(=O)c1ccc(NC(=O)c2nc([N+](=O)[O-])cn2C)cc1 |  | > 200 | 182
CN(C)C(=O)Nc1c([N+](=O)[O-])cc(C(F)(F)F)cc1[N+](=O)[O-] | inactive |  | 
N#CCCN(c1ccc(C=Nc2ccccc2Cl)cc1)S(=O)(=O)c1ccccc1 |  | > 427 | 331
N#C/C(=C\c1ccccc1)c1ccccc1F |  | > 200 | 37.2
COC(=O)c1c2c(cc3c1CC1(C3)Cc3ccc4c(c3C1=O)CCC4)CCC2 (stereo unspecified) |  | > 200 | 4.17
OC1(CN2CCOCC2)N=C(c2ccccc2)c2ccsc2-n2cccc21 (stereo unspecified) |  | > 200 | > 200
O=[N+]([O-])c1cccc(N=Cc2ccc(O)cc2)c1 |  | > 200 | 182

SMILES | outcome | EC50 [µM] | IC50 [µM]
CO[C@@H]1C=C[C@@]23c4cc5c(cc4CN(C[C@@H]2O)[C@H]3C1)OCO5 |  | > 603 | 1.1
Cc1c(C)c2ccc(OC(C)C(=O)O)cc2oc1=O (stereo unspecified) | inactive |  | 
CC1CCN(CCC(=O)CC(c2ccccc2)c2c(O)c3ccccc3oc2=O)CC1 (stereo unspecified) |  | > 97.7 | 57.5
CSc1cc(-c2ccccn2)nc(-c2ccccn2)c1.CSc1cc(-c2ccccn2)nc(-c2ccccn2)c1.[O-][Cl+3]([O-])([O-])[O-].[Zn+2] |  | > 200 | 0.0631
CCCCCCCCCCCCCCCCNc1ccn(C2OC(COP(=O)(O)OC3CC(n4cc(C)c(=O)[nH]c4=O)OC3CO)C(O)C2O)c(=O)n1 (stereo unspecified) |  | > 200 | 19.1
O=C(O)C1OC(n2cc([N+](=O)[O-])c(=O)[nH]c2=O)C(O)C1O (stereo unspecified) |  | > 200 | > 200
CC(C)Sc1nncc(/C(N)=N/O)n1 |  | > 200 | > 200
CC(=O)c1c(-c2ccc(Cl)cc2)c(C#N)c(=S)n(C2OC(CO)C(O)C(O)C2O)c1C (stereo unspecified) |  | > 200 | 44.7
NC(=O)C1C(=O)c2cccc3c2C1CCCC3 (stereo unspecified) |  | > 234 | 69.2
O=C1c2c(O)ccc(O)c2C(=O)c2c(NCCOCCO)ccc(NCCOCCO)c21 |  | > 200 | 3.55
O=C1N[C@H]2[C@H](O)[C@H](O)[C@@H](O)[C@H](O)[C@@H]2c2cc3c(c(O)c21)OCO3 | inactive |  | 
NC(=O)CC[C@@H]1NC[C@H](C(O)C(O)C(O)CO)OC1=O (stereo partly specified) |  | > 851 | > 851
CN(C)CN1C(=O)S/C(=C2\C(=O)N(C)c3ccc(Br)cc32)C1=O |  | > 200 | 24
CSc1cc(C(=O)Nc2ccc(C3=NCCN3)cc2)ccc1C(=O)Nc1ccc(C2=NCCN2)cc1 |  | > 141 | 72.4
Nc1nc(N)nc(Nc2ccc([As](=O)(O)O)cc2)n1 |  | > 21.9 | > 21.9
CC(=O)Oc1ccc(-c2cc3ccccc3oc2=O)cc1 |  | > 200 | 28.2
Cc1c2c(n(CCc3ccccc3)c1C)N(C)N=C(C#N)S2(=O)=O |  | > 200 | > 200
COc1ccc(-c2nc(N)c(C#N)c3c2CCSc2ccc(C)cc2-3)cc1OC |  | > 200 | 11.7
CC12CCC[C@@](C)(C(=O)OC3OC(CO)C(O)C(O)C3O)[C@H]1CCC13CC4CC(OC4(CO)[C@H]1O)[C@@H]23 (stereo partly specified) | inactive |  | 
CC(=O)OC1(C#N)CC2OC1C1C2N1C(=O)OC(C)(C)C (stereo unspecified) |  | > 427 | > 427
COc1ccc(O)c2c1C(=O)CCCC2=O | inactive |  | 
CC(=O)OC1CC2C(C)(C)C(=O)C=C[C@]2(C)C2CCC3(C)C(c4ccoc4)C(=O)[C@H]4O[C@]43[C@]12C (stereo partly specified) |  | > 15.5 | 12
COC(=O)C(Cc1ccc(N(C)C)cc1)(NC(=O)c1ccccc1)P(=O)(OC)OC (stereo unspecified) |  | > 417 | 398
C/C=C1\CN2CCc3c([nH]c4ccccc34)C2CC1C(=O)OC (stereo unspecified) |  | > 219 | > 219
CC(=O)On1c(-c2ccccc2)nc2ccccc2c1=S |  | > 200 | 1.35
CC(C)(C)C1COP(=O)(OCc2ccccc2)OC1 (stereo unspecified) |  | > 631 | > 631
CCCN(CCC)C(=S)Sc1nc(C)nc(N2CCN(c3nc(C)nc(SC(=S)N(CCC)CCC)c3[N+](=O)[O-])CC2)c1[N+](=O)[O-] |  | > 200 | 2.04

SMILES | outcome | EC50 [µM] | IC50 [µM]
O=C(Nc1nc2ccc([N+](=O)[O-])cc2s1)C(=O)C(C(=O)c1ccncc1)C1OC(=O)c2ccccc21 (stereo unspecified) |  | > 186 | 102
CC1(C)CC(=O)C2=C(C1)S/C(=C1/SC3=C(S1)C(=O)CC(C)(C)C3)S2 |  | > 6.92 | > 6.92
Cc1ccc(-c2c3nc(c(-c4ccc(C)cc4)c4ccc([nH]4)c(-c4ccc(C)cc4)c4nc(c(-c5ccncc5)c5ccc2[nH]5)C=C4)C=C3)cc1.Cc1ccc(-c2c3nc(c(-c4ccc(C)cc4)c4ccc([nH]4)c(-c4ccc(C)cc4)c4nc(c(-c5ccncc5)c5ccc2[nH]5)C=C4)C=C3)cc1.Cc1ccc(-c2c3nc(c(-c4ccc(C)cc4)c4ccc([nH]4)c(-c4ccc(C)cc4)c4nc(c(-c5ccncc5)c5ccc2[nH]5)C=C4)C=C3)cc1.Cc1ccc(-c2c3nc(c(-c4ccc(C)cc4)c4ccc([nH]4)c(-c4ccc(C)cc4)c4nc(c(-c5ccncc5)c5ccc2[nH]5)C=C4)C=C3)cc1.O=S(=O)([O-])C(F)(F)F.[Pd] |  | > 25.1 | > 25.1
CCCCCCCCCCOCCC(=O)O |  | > 200 | 89.1
CC(C)(C)c1cc(Nc2ccc([N+](=O)[O-])cc2[N+](=O)[O-])cc(C(C)(C)C)c1O |  | > 13.5 | > 13.5
CC(=O)NN(c1ccccc1)C1CCN(c2ccccc2)N1C(C)=O (stereo unspecified) |  | > 200 | 10.7
O=C(CSSCC(=O)c1ccccc1)c1ccccc1 |  | > 89.1 | 11
CNC(=O)/C(C#N)=C(\N)N1CCCC1 |  | > 200 | > 200
CC1(Cl)C(=O)NC(=O)N(C2CC(N=[N+]=[N-])C(CO)O2)C1N=[N+]=[N-] (stereo unspecified) |  | 3.89 | 282
CN(C)c1ccc2nc3c(cc(Nc4cccc5cccc(Nc6cc7ccccc7c7nc8ccc(N(C)C)cc8[o+]c67)c45)c4ccccc43)[o+]c2c1 |  | > 100 | 15.1
c1cc[c]([Sn]([S]c2cccc3cccnc23)([c]2ccccc2)[c]2ccccc2)cc1 | inactive |  | 
COC(=O)/C(=N/NC(C)(C)C)C(C(=O)C=C(C)C)C(=O)C(=O)Nc1ccc(Cl)cc1C (stereo unspecified) |  | > 398 | 269
CCOC(=O)NC1=NCC(C)(C)S1 | inactive |  | 
O=C1c2ccccc2C(=O)c2c1ccc1c2N=C(c2ccc(Br)cc2)CC(c2cccc3ccccc23)N1 (stereo unspecified) |  | > 64.6 | > 64.6
O=S1c2ccccc2Sc2ccccc21 |  | 75.9 | 174
O=C1NC(=S)NC(=O)C1=Cc1ccc(Cl)c(Cl)c1 |  | > 87.1 | > 87.1
Cn1c2c(c3ccccc31)C(=O)CC2(C)C |  | > 123 | 66.1
O=[N+]([O-])c1sc2ccc(Cl)cc2c1Nc1ccc(Cl)cc1 |  | > 200 | > 200
O=C(CCc1cccc(O)c1)NCCc1ccc(O)cc1 |  | 123 | > 200
Cc1occc1C(=S)Nc1ccc(Cl)c(C(=O)OC2CCCCC2)c1 |  | 0.012 | 7.24
CC(C)(C)OC(=O)N[C@@H](Cc1ccccc1)CN1CCCC1C(=O)OCc1ccccc1 (stereo partly specified) |  | > 30.9 | > 30.9
Cc1cn2c(C)csc2c1P(=O)(OC(C)C)OC(C)C |  | > 200 | 158
COC(=O)CC(C(C(=O)OCc1ccccc1)C(C)O)N1C(=O)OCC1c1ccccc1 (stereo unspecified) |  | > 200 | 123
C=CCCC(=O)N1CCC(C(=O)OCC)C1=O (stereo unspecified) |  | > 200 | > 200
Cc1cc(N(CCC#N)CCC#N)ccc1/C=C/C(=O)Nc1ccccc1Cl |  | > 457 | > 457
CC1=C(C(=O)Nc2cc(F)c(F)cc2F)C(c2ccc3c(c2)OCO3)C(C(=O)Nc2cc(F)c(F)cc2F)=C(C)N1 |  | > 61.7 | 46.8
